Data taken from the Kinase Knowledgebase extract (Sharma et al. 2016).

Each compound was assayed against CDK2 (human) (UniProt P24941) (assay: Enzyme Assay).

Row | Compound | IC50 [µM]
1 | CC(=O)c1ccc(-c2ccc(Nc3c(C)c(N[C@H]4CCCNC4)nc4ccnn34)cc2)s1 | < 100
2 | COc1c(N[C@H]2CC[C@H](N)CC2)nc2ccnn2c1Nc1ccc(F)c(Cl)c1 | < 100
3 | CCc1c(N[C@H]2CC[C@H](N)CC2)nc2ccnn2c1Nc1ccc(F)c(Cl)c1 | < 100
4 | CCc1c(NC2CCNCC2)nc2ccnn2c1Nc1ccc(F)c(Cl)c1 | < 100
5 | Cc1c(N[C@H]2CC[C@H](N)CC2)nc2ccnn2c1Nc1ccc(OCCC2CCCCC2)cc1 | < 100
6 | CCCc1c(N[C@H]2CC[C@H](N)CC2)nc2c(Br)cnn2c1Nc1ccc(F)c(Cl)c1 | < 100
7 | CCOc1ccc(Nc2c(C)c(N[C@H]3CC[C@H](N)CC3)nc3c(CO)cnn23)cc1 | < 100
8 | C=CCNc1c(CC)c(N[C@H]2CC[C@H](N)CC2)nc2ccnn12 | < 100
9 | CCc1c(N[C@H]2CC[C@H](N)CC2)nc2ccnn2c1Nc1ccc(OC(F)(F)C(F)F)cc1 | < 100
10 | CCc1c(N[C@H]2CC[C@H](N)CC2)nc2ccnn2c1Nc1ccc(C(N)=O)cc1 | < 100
11 | Cc1c(NC2CCCNC2)nc2ccnn2c1Nc1ccccc1F (stereo not given) | < 100
12 | N[C@H]1CC[C@H](Nc2cc(NCc3ccc(F)c(Cl)c3)n3ncc(Br)c3n2)CC1 | < 100
13 | CCc1c(N[C@H]2CC[C@H](N)CC2)nc2ccnn2c1Nc1cccc(C(N)=O)c1 | < 100
14 | CCOc1ccc(Nc2c(C)c(N[C@H]3CC[C@H](N)CC3)nc3c(C(C)C)cnn23)cc1 | < 100
15 | C=CCNc1c(-c2ccccc2)c(N[C@H]2CC[C@H](N)CC2)nc2ccnn12 | < 100
16 | Cc1c(N[C@H]2CC[C@H](N)CC2)nc2ccnn2c1Nc1cccc(OCCC2CCCCC2)c1 | < 100
17 | Cc1c(N[C@H]2CC[C@H](N)CC2)nc2c(C#N)cnn2c1Nc1ccc(F)c(Cl)c1 | < 100
18 | CCOc1ccc(Nc2c(C(C)C)c(N[C@H]3CC[C@H](N)CC3)nc3ccnn23)cc1 | < 100
19 | CCOc1ccc(Nc2c(C)c(N[C@H]3CC[C@H](N)CC3)nc3c(C(=O)Nc4ccccn4)cnn23)cc1 | < 100
20 | CCCCOc1ccc(Nc2c(CC)c(N[C@H]3CC[C@H](N)CC3)nc3ccnn23)cc1 | < 100
21 | CCc1c(NC2CCCNC2)nc2c(Cl)cnn2c1Nc1ccc(I)cc1 (stereo not given) | < 100
22 | CCc1c(NC2CCCNC2)nc2ccnn2c1Nc1ccc(Br)cc1 (stereo not given) | < 100

Row | Compound | IC50 [µM]
23 | CCOC(=O)c1ccc(Nc2c(CC)c(N[C@H]3CC[C@H](N)CC3)nc3ccnn23)cc1Cl | < 100
24 | N[C@H]1CC[C@H](Nc2cc(Nc3ccc(F)c(Cl)c3)n3ncc(Br)c3n2)CC1 | < 100
25 | CCOc1ccc(Nc2c(C)c(N[C@@H]3CCNC3)nc3ccnn23)cc1 | < 100
26 | Cc1c(N[C@H]2CC[C@H](N)CC2)nc2ccnn2c1Nc1cccc(OCC2CCCC2)c1 | < 100
27 | CCOc1ccc(Nc2cc(N[C@H]3CC[C@H](N)CC3)nc3c(I)cnn23)cc1 | < 100
28 | CCCc1c(N[C@H]2CC[C@H](N)CC2)nc2ccnn2c1Nc1ccc(F)c(Cl)c1 | < 100
29 | CCOc1ccc(Nc2c(C)c(N[C@H]3CCN(Cc4ccccc4)C3)nc3ccnn23)cc1 | < 100
30 | N#Cc1cnn2c(Nc3ccc(F)c(Cl)c3)cc(N[C@H]3CC[C@H](N)CC3)nc12 | < 100
31 | CCOc1ccc(Nc2c(C)c(N[C@H]3CC[C@H](N)CC3)nc3c(C(=O)O)cnn23)cc1 | < 100
32 | Cc1c(N[C@H]2CC[C@H](N)CC2)nc2ccnn2c1Nc1ccc(OCCC2CCCCN2)cc1 (stereo not given in full) | < 100
33 | Cc1c(NC2CCCNC2)nc2ccnn2c1Nc1ccc(F)c(Cl)c1 (stereo not given) | < 100
34 | Fc1ccc(Nc2cc(NC3CCCNC3)nc3c(Br)cnn23)cc1Cl (stereo not given) | < 100
35 | CCOc1ccc(Nc2c(C)c(N[C@H]3CC[C@H](N)CC3)nc3c(C(=O)Nc4cc[nH]n4)cnn23)cc1 | < 100
36 | CCOc1ccc(Nc2c(C)c(N[C@H]3CC[C@H](N)CC3)nc3c(C(=O)NCCN(C)C)cnn23)cc1 | < 100
37 | Cc1c(N[C@H]2CC[C@H](N)CC2)nc2ccnn2c1Nc1cccc(OC2CCCC2)c1 | < 100
38 | CCOc1ccc(Nc2c(C)c(NC3CCCNC3)nc3c(CC)cnn23)cc1 (stereo not given) | < 100
39 | CCOC(=O)c1ccc(Nc2c(CC)c(N[C@H]3CC[C@H](N)CC3)nc3ccnn23)cc1 | < 100
40 | CCc1c(N[C@H]2CC[C@H](N)CC2)nc2ccnn2c1Nc1ccc(OC)c(C(F)(F)F)c1 | < 100
41 | Cc1c(N[C@H]2CC[C@H](N)CC2)nc2ccnn2c1Nc1ccc(OCCN2CCCCC2)cc1 | < 100
42 | CCOc1ccc(Nc2c(C)c(N[C@H]3CC[C@H](N)CC3)nc3c(C4CCCCC4)cnn23)cc1 | < 100
43 | CCc1c(N[C@H]2CC[C@H](N)CC2)nc2ccnn2c1Nc1cccc(C)c1 | < 100

The remaining lines, values ahead:

Row | IC50 [µM] | Compound
44 | < 100 | Cc1c(N[C@H]2CC[C@H](N)CC2)nc2ccnn2c1Nc1ccc(-c2ccncc2)cc1
45 | < 100 | Cc1c(N[C@H]2CC[C@H](N)CC2)nc2ccnn2c1Nc1cccc(O)c1
46 | < 100 | Cc1c(N[C@H]2CC[C@H](N)CC2)nc2ccnn2c1Nc1ccccc1
47 | < 100 | Cc1c(N[C@H]2CC[C@H](N)CC2)nc2ccnn2c1Nc1cccc(OCCn2ccnc2)c1
48 | < 100 | CCc1c(N[C@H]2CC[C@H](N)CC2)nc2ccnn2c1Nc1ccc(OC)cc1
49 | < 100 | Cc1c(N[C@H]2CC[C@H](N)CC2)nc2ccnn2c1Nc1ccc(-c2ccc(C#N)cc2)cc1
50 | < 100 | Cc1c(N[C@H]2CC[C@H](N)CC2)nc2ccnn2c1Nc1ccc(-c2ccccc2O)cc1
51 | < 100 | Cc1c(N[C@H]2CC[C@H](N)CC2)nc2ccnn2c1Nc1ccc(OCc2ccccc2)cc1
52 | < 100 | Cc1c(N[C@H]2CC[C@H](N)CC2)nc2ccnn2c1Nc1ccccc1F
53 | < 100 | Cc1cccc(-c2ccc(Nc3c(C)c(N[C@H]4CC[C@H](N)CC4)nc4ccnn34)cc2)c1
54 | < 100 | CCc1c(N[C@H]2CC[C@H](N)CC2)nc2ccnn2c1Nc1ccc(I)cc1
55 | < 100 | Cc1c(N[C@H]2CC[C@H](N)CC2)nc2ccnn2c1Nc1ccc2ncsc2c1
56 | < 100 | Cc1c(N[C@H]2CC[C@H](N)CC2)nc2ccnn2c1Nc1ccc(OCc2ccccn2)cc1
57 | < 100 | Cc1c(N[C@H]2CC[C@H](N)CC2)nc2ccnn2c1Nc1ccc(C(=O)NCc2ccco2)cc1
58 | < 100 | CCOc1ccc(Nc2c(C)c(N[C@H]3CC[C@H](N)CC3)nc3ccnn23)cc1
59 | < 100 | Cc1c(N[C@H]2CC[C@H](N)CC2)nc2ccnn2c1Nc1ccc(-c2cc3ccccc3o2)cc1
60 | < 100 | Cc1c(N[C@H]2CC[C@H](N)CC2)nc2ccnn2c1Nc1ccc(OCC2CCCCN2)cc1 (stereo not given in full)
61 | < 100 | CNC(=O)c1ccc(Nc2c(C)c(N[C@H]3CC[C@H](N)CC3)nc3ccnn23)cc1
62 | < 100 | CC(=O)c1ccc(-c2ccc(Nc3c(C)c(N[C@H]4CC[C@H](N)CC4)nc4ccnn34)cc2)s1
63 | < 100 | Cc1c(N[C@H]2CC[C@H](N)CC2)nc2ccnn2c1Nc1cccc(I)c1
64 | < 100 | Cc1c(N[C@H]2CC[C@H](N)CC2)nc2ccnn2c1Nc1ccc(N(C)C)cc1
65 | < 100 | Cc1c(N[C@H]2CC[C@H](N)CC2)nc2ccnn2c1Nc1ccc2[nH]ncc2c1
66 | < 100 | Cc1c(N[C@H]2CC[C@H](N)CC2)nc2ccnn2c1Nc1ccc(-c2cccc(F)c2)cc1
67 | < 100 | Cc1c(N[C@H]2CC[C@H](N)CC2)nc2ccnn2c1Nc1ccc(OCc2cccc(N)c2)cc1
68 | < 100 | Cc1c(N[C@H]2CC[C@H](N)CC2)nc2ccnn2c1Nc1ccccc1Cl
69 | < 100 | Cc1c(N[C@H]2CC[C@H](N)CC2)nc2ccnn2c1Nc1ccc(-c2cccc(C(F)(F)F)c2)cc1

Row | IC50 [µM] | Compound
70 | < 100 | Cc1c(NC2CCCNC2)nc2ccnn2c1Nc1ccc(-c2cccc(N)c2)cc1 (stereo not given)
71 | < 100 | Cc1c(N[C@H]2CC[C@H](N)CC2)nc2ccnn2c1Nc1cccc(OCc2cccnc2)c1
72 | < 100 | Cc1c(N[C@H]2CC[C@H](N)CC2)nc2ccnn2c1Nc1ccc(-c2cccc(CO)c2)cc1
73 | < 100 | Cc1c(N[C@H]2CC[C@H](N)CC2)nc2ccnn2c1Nc1ccc(-c2ccc(F)cc2)cc1
74 | < 100 | Cc1c(N[C@H]2CC[C@H](N)CC2)nc2ccnn2c1Nc1ccc(-c2ccsc2)cc1
75 | < 100 | Cc1c(NC2CCCNC2)nc2ccnn2c1Nc1ccc(-c2cccc(CO)c2)cc1 (stereo not given)
76 | < 100 | COCc1cccc(-c2ccc(Nc3c(C)c(N[C@H]4CC[C@H](N)CC4)nc4ccnn34)cc2)c1
77 | < 100 | Cc1c(N[C@H]2CC[C@H](N)CC2)nc2ccnn2c1Nc1ccc(C(=O)NCc2cccnc2)cc1
78 | < 100 | Cc1c(N[C@H]2CC[C@H](N)CC2)nc2ccnn2c1Nc1ccc(C(F)(F)F)cc1
79 | < 100 | Cc1c(N[C@H]2CC[C@H](N)CC2)nc2ccnn2c1Nc1ccc(-c2ccc(N(C)C)cc2)cc1
80 | < 100 | Cc1c(N[C@H]2CC[C@H](N)CC2)nc2ccnn2c1Nc1ccc(-c2cccc(Cl)c2)cc1
81 | < 100 | Cc1c(N[C@H]2CC[C@H](N)CC2)nc2ccnn2c1Nc1ccc(-c2ccccc2Cl)cc1
82 | < 100 | CCOc1ccc(Nc2c(-c3ccc(OC)cc3)c(N[C@H]3CC[C@H](N)CC3)nc3ccnn23)cc1
83 | < 100 | Cc1c(N[C@H]2CC[C@H](N)CC2)nc2ccnn2c1Nc1ccc(-c2ccsc2C=O)cc1
84 | < 100 | Cc1c(N[C@H]2CC[C@H](N)CC2)nc2ccnn2c1Nc1ccc(OC2CCN(C)CC2)cc1
85 | < 100 | COc1ccc(-c2ccc(Nc3c(C)c(N[C@H]4CC[C@H](N)CC4)nc4ccnn34)cc2)cc1
86 | < 100 | Cc1c(N[C@H]2CC[C@H](N)CC2)nc2ccnn2c1Nc1ccc(CO)cc1
87 | < 100 | Cc1c(N[C@H]2CC[C@H](N)CC2)nc2ccnn2c1Nc1ccc(-c2cc3ccccc3s2)cc1
88 | < 100 | CCS(=O)(=O)c1ccc(-c2ccc(Nc3c(C)c(N[C@H]4CC[C@H](N)CC4)nc4ccnn34)cc2)cc1
89 | < 100 | Cc1c(N[C@H]2CC[C@H](N)CC2)nc2ccnn2c1Nc1ccc(-c2ccc(OC(F)(F)F)cc2)cc1
90 | < 100 | Cc1c(N[C@H]2CC[C@H](N)CC2)nc2ccnn2c1Nc1ccc(-c2cccc(C#N)c2)cc1
91 | < 100 | Cc1c(N[C@H]2CC[C@H](N)CC2)nc2ccnn2c1Nc1ccc(-n2ccnc2)cc1
92 | < 100 | CCc1c(N[C@H]2CC[C@H](N)CC2)nc2ccnn2c1Nc1ccccc1
93 | < 100 | Cc1c(N[C@H]2CC[C@H](N)CC2)nc2ccnn2c1Nc1ccc(OC2CCOCC2)cc1
94 | < 100 | Cc1c(N[C@H]2CC[C@H](N)CC2)nc2ccnn2c1Nc1ccc2c(c1)OCCO2
95 | < 100 | Cc1c(N[C@H]2CC[C@H](N)CC2)nc2ccnn2c1Nc1ccc(-c2csc3ccccc23)cc1
